Results on 14 molecules are retold here after patent US6476034B2, “Antiviral azaindole derivatives” (priority 2000, dated 2002).

pEC50: −log10 of the molar value. Some results are limits rather than exact numbers.

The subject of the test is single-round infectious HIV-1 reporter virus. Kind of test: microbe, parasite or virus in culture. In kind it is cell-based. The note with it: for Average % inhibition at or <10 μM: HeLa CD4 CCR5 cells, luciferase expression 3 days (72 hours) after infection, compounds tested below 10 μM: % inhibition at 10 μM extrapolated with XLfit, mean of at least two experiments; for pEC50: Human immunodeficiency virus 1, HeLa-CD4/CCR5; for inhibition at 10 µM: Human immunodeficiency virus 1, HeLa-CD4/CCR5, 72 h, read-out: Average % inhibition at or <10 μM.

With `C[C@@H]1CN(C(=O)c2ccccc2)CCN1C(=O)C(=O)c1c[nH]c2c1ccc[n+]2[O-]` [Compound 8a, (R)-N-(benzoyl)-3-methyl-N′-[(7-oxide-7-azaindol-3-yl)-oxoacetyl]-piperazine], the “Average % inhibition at or <10 μM” value is 90%.
The term pEC50 denotes −log10 of the EC50, conventionally taken in molar units. Low readings indicate a high EC50, high ones a low EC50. As a reminder, the inhibition is the change of the read-out against control, counted positive when it falls. On to `COc1ccnc2[nH]cc(C(=O)C(=O)N3CCN(C(=O)c4c(F)c(F)c(N=[N+]=[N-])c(F)c4F)C[C@H]3C)c12` [Compound 5n, (R)-N-(4-azido-2,3,5,6-tetra-fluorobenzoyl)-3-methyl-N′-[(4-methoxy-7-azaindol-3-yl)-oxoacetyl]-piperazine], for which the pEC50 was above 6.00 and the inhibition at 10 µM is 93%.
Taken in the same sequence, the figures for `COc1ccnc2c(C(=O)C(=O)N3CCN(C(=O)c4ccccc4)C[C@H]3C)cn(C)c12` [Compound 5z, (R)-N-(benzoyl)-3-Methyl-N′-[(7-Methoxy-1-methyl-4-azaindol-3-yl)-oxoacetyl]-piperazine] were above 6.00 and 97%.
In turn, `CNc1ccnc2[nH]cc(C(=O)C(=O)N3CCN(C(=O)c4ccccc4)C[C@H]3C)c12` [Compound 17h, (R)-N-(benzoyl)-3-methyl-N′-[(4-methylamino-7-azaindol-3-yl)-oxoacetyl]-piperazine] gave a pEC50 below 6.30.
On the same count and under the same terms, the value for `CC(C)C1CN(C(=O)c2ccccc2)CCN1C(=O)C(=O)c1c[nH]c2ncccc12` (stereo not drawn) [Compound 5ab, N-(benzoyl)-3-iso-Propyl-N′-[(7-azaindol-3-yl)-oxoacetyl]-piperazine] was below 6.30.
Take `C=CCn1cc(C(=O)C(=O)N2CCN(C(=O)c3ccccc3)C[C@H]2C)c2cccnc21` [Compound 21b, (R)-N-(benzoyl)-3-methyl-N′-[(1-allyl-7-azaindol-3-yl)-oxoacetyl]-piperazine]: the pEC50 was above 6.00 and the inhibition at 10 µM worked out at 95%.
For `C[C@@H]1CN(C(=O)c2ccccc2)CCN1C(=O)C(=O)c1c[nH]c2c(N(C)C)nccc12` [Compound 27c, (R)-N-(benzoyl)-3-methyl-N′-[(7-dimethylamino-6-azaindol-3-yl)-oxoacetyl]-piperazine], the pEC50 was above 6.00 and the inhibition at 10 µM stood at 63%.
On to `C[C@@H]1CN(C(=O)c2ccccc2)CCN1C(=O)C(=O)c1c[nH]c2c[n+]([O-])ccc12` [Compound 8b, (R)-N-(benzoyl)-3-methyl-N′-[(6-oxide-6-azaindol-3-yl)-oxoacetyl]-piperazine], for which the “Average % inhibition at or <10 μM” value is listed as 91%.
On to `C[C@@H]1CN(C(=O)c2ccccc2)CCN1C(=O)C(=O)c1c[nH]c2nccc(N)c12` [Compound 20a, (R)-N-(benzoyl)-3-methyl-N′-[(4-amino-7-azaindol-3-yl)-oxoacetyl]-piperazine], for which the pEC50 was above 6.00 and the inhibition at 10 µM came to 95%.
`COc1cncc2[nH]cc(C(=O)C(=O)N3CCN(C(=O)c4ccccc4)CC3)c12` [Compound 39, N-(benzoyl)-N′-[(4-methoxy-6-azaindol-3-yl)-oxoacetyl]-piperazine] showed a negative-log EC50 (pEC50) above 6.00.
As for `C[C@@H]1CN(C(=O)c2ccccc2)CCN1C(=O)C(=O)c1c[nH]c2nc(F)cc([N+](=O)[O-])c12` [Compound 10a, (R)-N-(benzoyl)-3-methyl-N′-[(4-nitro-6-fluoro-7-azaindol-3-yl)-oxoacetyl]-piperazine], the pEC50 is above 6.00 and the inhibition at 10 µM was above 99%.
Consider `CCCSc1ccc2c(C(=O)C(=O)N3CCN(C(=O)c4ccccc4)C[C@H]3C)c[nH]c2n1` [Compound 17f, (R)-N-(benzoyl)-3-methyl-N′-[(6-propylthiol-7-azaindol-3-yl)-oxoacetyl]-piperazine], for which the “Average % inhibition at or <10 μM” value was above 99%.
`C[C@@H]1CN(C(=O)c2ccccc2)CCN1C(=O)C(=O)c1c[nH]c2nccc(OCC(F)(F)F)c12` [Compound 17b, (R)-N-(benzoyl)-3-methyl-N′-[(4-(2,2,2-trifluoroethoxy)-7-azaindol-3-yl)-oxoacetyl]-piperazine]: the pEC50 was above 6.00 and the inhibition at 10 µM turned out to be 99%.
As for “(R)-N-(benzoyl)-3-methyl-N′-[(4 or 6)-methyl-7-azaindol-3-yl)-oxoacetyl]-piperazine [Compound 11a]”, the “Average % inhibition at or <10 μM” value is on record as 99%.
